# Measured values taken from patent US11168347B2, “Digital quantification of DNA replication and/or chromosome segregation based determination of antimicrobial susceptibility” (CALIFORNIA INSTITUTE OF TECHNOLOGY, priority 2016, dated 2021).
# Test system: E. coli strain isolated from a patient with a urinary tract infection
# Test: microbe, parasite or virus in culture
# Settings: Escherichia coli, read-out: minimum inhibitory concentration
structure (smiles),measurement,value
"O=C1CN(/N=C/c2ccc([N+](=O)[O-])o2)C(=O)N1 [nit, Nitrofurantoin]",MIC,64 µg/mL
